Reference: patent US20140357726A1, “USE OF PEGYLATED ALCOHOLS FOR THE TREATMENT OF ACTINIC KERATOSIS” (MERZ PHARMA GmbH & CO. KGaA, priority 2011, published 2014)

Test system: NHEK-cells
Test: Resazurin viability assay on primary normal human epidermal keratinocytes (cytolytic potential)
Type: cell-based
Settings: metabolic activity as read-out (Resazurin-assay); eight concentrations up to 1 mM
Description: By using primary, normal human epidermal keratinocytes (NHEK, FIG. 1) the cytolytic potential of the drug compound was investigated.
The viability of the cells was monitored by their metabolic activity using the Resazurin-assay. Eight different concentrations (up to 1 mM) of polidocanol were investigated. Viability of the cells was plotted against the different concentration of test compound.
From the resulting sigmoid-curve the IC50 value for the cytolytic effect was determined and given in the respective figure. FIG. 1 depicts the relative viability of NHEK-cells vs. the concentration of test-compound using metabolic activity as read-out.

Polidocanol
relative viability of NHEK-cells vs. the concentration of test-compound: clear negative-impact
